Assays:
[1] = target: Mu-type opioid receptor (Rattus norvegicus, UniProt P33535)
[2] = target: 5-hydroxytryptamine receptor 2A (Rattus norvegicus, UniProt P14842)
[3] = target: 5-hydroxytryptamine 1D receptor (Bos taurus, UniProt Q8MI13)
[4] = target: T1, 5-hydroxytryptamine receptor 2C (Sus scrofa, UniProt G7ZKZ7)
T1 sequence (G7ZKZ7 whole entry): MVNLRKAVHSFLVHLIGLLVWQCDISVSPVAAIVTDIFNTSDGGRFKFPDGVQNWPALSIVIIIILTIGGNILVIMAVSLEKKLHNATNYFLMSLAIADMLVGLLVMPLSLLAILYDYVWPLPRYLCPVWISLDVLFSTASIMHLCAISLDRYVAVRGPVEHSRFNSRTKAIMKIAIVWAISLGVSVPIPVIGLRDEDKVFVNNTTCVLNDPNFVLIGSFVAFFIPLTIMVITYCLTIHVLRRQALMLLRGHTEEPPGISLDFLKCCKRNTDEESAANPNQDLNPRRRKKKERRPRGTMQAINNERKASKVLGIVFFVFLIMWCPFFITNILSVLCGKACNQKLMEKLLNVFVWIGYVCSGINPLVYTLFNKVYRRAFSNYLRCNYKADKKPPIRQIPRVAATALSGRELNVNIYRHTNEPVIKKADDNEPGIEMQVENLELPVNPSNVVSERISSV

[5] = target: T2, Alpha-1A adrenergic receptor (Bos taurus, UniProt P18130)
T2 sequence (P18130 whole entry): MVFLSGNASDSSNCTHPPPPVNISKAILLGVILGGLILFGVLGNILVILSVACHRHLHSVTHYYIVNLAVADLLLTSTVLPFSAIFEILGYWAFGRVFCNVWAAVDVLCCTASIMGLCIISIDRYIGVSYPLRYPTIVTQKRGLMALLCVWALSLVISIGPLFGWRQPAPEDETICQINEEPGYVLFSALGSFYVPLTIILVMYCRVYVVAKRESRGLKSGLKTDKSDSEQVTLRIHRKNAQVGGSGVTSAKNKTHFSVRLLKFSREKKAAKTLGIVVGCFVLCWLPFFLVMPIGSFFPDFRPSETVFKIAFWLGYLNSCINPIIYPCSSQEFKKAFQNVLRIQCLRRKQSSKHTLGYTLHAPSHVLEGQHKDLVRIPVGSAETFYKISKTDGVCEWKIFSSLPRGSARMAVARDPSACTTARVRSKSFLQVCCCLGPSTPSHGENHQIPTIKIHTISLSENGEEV

[6] = target: T3, Alpha-2A adrenergic receptor (Bos taurus, UniProt Q28838)
T3 sequence (Q28838 whole entry): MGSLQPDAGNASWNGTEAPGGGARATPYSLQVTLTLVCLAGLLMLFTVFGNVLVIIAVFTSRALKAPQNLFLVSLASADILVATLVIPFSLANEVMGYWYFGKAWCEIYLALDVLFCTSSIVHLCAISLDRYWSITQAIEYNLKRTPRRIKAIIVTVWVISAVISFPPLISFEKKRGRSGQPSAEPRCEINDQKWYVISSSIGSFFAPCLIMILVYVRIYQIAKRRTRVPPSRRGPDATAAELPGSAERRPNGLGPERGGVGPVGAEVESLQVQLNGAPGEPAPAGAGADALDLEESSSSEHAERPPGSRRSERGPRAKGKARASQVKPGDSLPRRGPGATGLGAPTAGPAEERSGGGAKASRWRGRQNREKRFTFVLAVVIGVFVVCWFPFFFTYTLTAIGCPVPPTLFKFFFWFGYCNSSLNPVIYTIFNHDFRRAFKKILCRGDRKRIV

Chain of Mu-type opioid receptor (P33535 whole entry): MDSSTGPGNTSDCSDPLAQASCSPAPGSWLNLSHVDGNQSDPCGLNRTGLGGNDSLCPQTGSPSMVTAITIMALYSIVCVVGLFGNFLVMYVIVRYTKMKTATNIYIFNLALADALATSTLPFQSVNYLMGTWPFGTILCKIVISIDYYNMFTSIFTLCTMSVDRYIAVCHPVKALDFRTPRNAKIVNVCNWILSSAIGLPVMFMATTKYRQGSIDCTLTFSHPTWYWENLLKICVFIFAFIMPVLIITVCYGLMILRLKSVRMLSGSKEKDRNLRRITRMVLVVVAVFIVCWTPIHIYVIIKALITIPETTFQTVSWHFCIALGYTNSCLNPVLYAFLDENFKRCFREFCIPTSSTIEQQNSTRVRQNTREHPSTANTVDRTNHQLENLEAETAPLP
Chain of 5-hydroxytryptamine 1D receptor (Q8MI13 whole entry): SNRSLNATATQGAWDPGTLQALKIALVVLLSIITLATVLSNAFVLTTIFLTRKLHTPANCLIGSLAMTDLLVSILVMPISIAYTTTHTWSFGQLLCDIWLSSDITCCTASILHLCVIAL
Chain of 5-hydroxytryptamine receptor 2A (P14842 whole entry): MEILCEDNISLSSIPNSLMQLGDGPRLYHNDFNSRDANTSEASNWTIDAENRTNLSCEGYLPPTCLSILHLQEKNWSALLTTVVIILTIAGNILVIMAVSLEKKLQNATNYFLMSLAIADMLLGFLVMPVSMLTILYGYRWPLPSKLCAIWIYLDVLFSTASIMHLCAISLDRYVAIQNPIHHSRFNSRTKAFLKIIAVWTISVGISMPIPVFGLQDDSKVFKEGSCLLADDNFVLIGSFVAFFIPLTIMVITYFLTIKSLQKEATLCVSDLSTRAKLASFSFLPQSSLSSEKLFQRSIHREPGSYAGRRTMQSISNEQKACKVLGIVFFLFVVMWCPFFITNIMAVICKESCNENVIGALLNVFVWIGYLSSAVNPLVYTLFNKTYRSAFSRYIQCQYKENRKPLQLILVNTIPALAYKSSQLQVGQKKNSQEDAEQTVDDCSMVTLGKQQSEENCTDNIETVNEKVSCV

- Ki [1]: > 10 µM
- Ki [2]: > 10 µM
- Ki [3]: 2.51 µM
- Ki [4]: 3.98 µM
- Ki [5]: 6.31 µM
- Ki [6]: > 10 µM
SMILES: CCN(CC)CCOC(=O)c1cc(Cl)c(N)cc1OC [SDZ-205557]

From BindingDB's records for doi:10.1007/bf00176615 (Sandoz Pharma, 1992)
